16 compounds from patent publication US11453697B1, “Cyclic di-nucleotide compounds as sting agonists” (Merck Sharp & Dohme Corp., priority 2015, dated 2022) can be followed below.

Read-outs that look alike come from different tables or passages of the source. Some results are limits rather than exact numbers.

For one assay, the target named is full-length HAQ STING (Homo sapiens (Human), UniProt Q86WV6, G230A/H232R/R293Q/R71H). In words: 3H-cGAMP filtration binding assay (HAQ STING). The settings on record: competition with tritiated cGAMP, HAQ STING membrane; read-out: EC50 (nM), 3H-cGAMP filtration binding assay for HAQ STING. An excerpt:
The ability of compounds to bind STING is quantified by the ability to compete with tritiated cGAMP ligand for human STING receptor membrane using a radioactive filter-binding assay. The binding assay employs STING receptor obtained from Hi-Five cell membranes overexpressing full-length HAQ STING prepared in-house and tritiated cGAMP ligand also purified in-house.
The ability of compounds to bind STING is quantified by their ability to compete with tritiated cGAMP ligand for human STING receptor membrane using a radioactive filter-binding assay.
The basic HAQ STING filtration assay protocol is as follows:
Compound and membrane then preincubated for 60 min at RT to allow compound binding to equilibrate. Following equilibration, 8 nM of [^3H] c-GAMP ligand was prepared by diluting into assay buffer, and 50 uL of this working stock was then manually added to each well of the assay plate. […] The filter plates were then dried at 55° C. for 30 min using a pressurized VWR oven before 30 uL of Ultima GoldF scintillate was added to each well. Tritium levels for each reaction well were then measured using a PerkinElmer TopCount plate reader.
After normalization to controls, the percent activity for each compound concentration was calculated by measuring the amount of remaining radioactivity. The plot of percent activity versus the log of compound concentration was fit with a 4-parameter dose response equation to calculate EC50 values.

In assay [1] the test system is IFN-β secretion in THP1 cells. In words: IFN-β secretion in THP1 cell culture (5 h). In kind it is cell-based, human. The method, then: The ability of compounds to stimulate the secretion of interferon-beta from THP1 cells was measured using a human IFN-β AlphaLISA kit (Perkin Elmer, Cat. No. AL265F). The basic protocol is as follows:
The cell viability and count was ascertained using a Beckman Coulter V-Cell XR cell counter. The cells suspension was centrifuged at 200×g for 5 min at RT. […] Subsequent liquid transfers were performed using either a Matrix electronic multichannel pipette or an Agilent Bravo Automated Liquid Handling Platform.
The assay was started by dispensing 40 μL of the previously prepared cell suspension into the wells of the plate containing compounds. After 5 h incubation at 37° C., 5% CO2 in a humidified atmosphere, the plate of cells and compounds was centrifuged at 200×g for 5 min at RT. […] To these supernatant-containing wells was added 10 μL of 5× Anti-Analyte Acceptor beads (50 μg/mL of AlphaLISA HiBlock Buffer) and incubated for 30 min at RT while shaking on an orbital plate shaker. To each well was added 10 μL of 5× Biotinylated Antibody Anti-analyte (5 nM in AlphaLISA HiBlock Buffer) and incubated on an orbital plate shaker for 60 min at RT or overnight at 4° C. To each well was added 25 μL of 2× SA-Donor beads (80 μg/mL in AlphaLISA HiBlock Buffer) and incubated for 30-45 min at RT in the dark while shaking on an orbital plate shaker. The plate was then read on a Perkin Elmer Envision (λex=680 nm, λem=[…]). The percent effect of the AlphaLISA signal at each compound concentration was calculated based on 30 uM cGAMP positive controls and 0.3% DMSO negative controls. The plot of percent effect versus the log of compound concentration was fit with a 4-parameter concentration response equation to calculate EC50 values.
Compounds of the disclosure were evaluated for IFN-β secretion in THP1 cell culture as described above.

The mark [2] stands for this setting: IFN-β secretion in THP1 cell culture, 5 h, compound at 30 μM, percent activation relative to 2′3′-cGAMP.

full-length HAQ STING, sequence (Q86WV6 other isoform, or with tags, fused parts or gaps, stated change not applied): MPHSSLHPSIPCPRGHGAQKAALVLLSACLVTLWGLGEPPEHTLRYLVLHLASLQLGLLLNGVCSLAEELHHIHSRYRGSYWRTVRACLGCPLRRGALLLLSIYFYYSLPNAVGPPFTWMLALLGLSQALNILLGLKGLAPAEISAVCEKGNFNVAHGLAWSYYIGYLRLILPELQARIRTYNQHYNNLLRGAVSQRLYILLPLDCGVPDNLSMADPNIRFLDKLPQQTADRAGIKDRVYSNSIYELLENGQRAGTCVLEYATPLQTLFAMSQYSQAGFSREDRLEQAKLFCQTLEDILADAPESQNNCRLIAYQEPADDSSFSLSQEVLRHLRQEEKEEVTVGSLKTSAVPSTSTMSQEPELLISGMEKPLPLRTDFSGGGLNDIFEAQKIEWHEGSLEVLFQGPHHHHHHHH

Regarding `Nc1nc2c(ncn2[C@@H]2O[C@@H]3COP(=O)(S)O[C@H]4[C@@H](O)[C@H](n5ccc6c(N)ncnc65)O[C@@H]4COP(=O)(S)O[C@@H]2C3)c(=O)[nH]1` (single isomer, unassigned) [Example 80], at full-length HAQ STING, the EC50 came out at 1.3 nM.
On to `Nc1ncnc2c1ncn2[C@@H]1O[C@@H]2COP(=O)(O)O[C@@H]3[C@H](O)[C@@H](COP(=O)(O)O[C@H]2[C@H]1O)O[C@H]3c1cnc2c(=O)[nH]cnn12` [Example 68, 7-[(5R,7S,8R,12aR,14R,15R,15aS,16R)-14-(6-amino-9H-purin-9-yl)-2,10,15,16-tetrahydroxy-2,10-dioxidooctahydro-12H-5,8-methanofuro [3,2-l][1,3,6,9,11,2,10]pentaoxadiphosphacyclotetradecin-7-yl]imidazo[2,1-f][1,2,4]triazin-4(3H)-one], for which the “% Effect at 30 μM relative to 2′3′-cGAMP” value in assay [1] (setting [2]) is listed as 72%. Besides, the EC50 at full-length HAQ STING was determined as 63.8 nM.
As to `Nc1nc2c(ncn2[C@@H]2O[C@@H]3COP(=O)(O)O[C@H]4[C@@H](O)[C@H](n5cnc6c(O)ncnc65)O[C@@H]4COP(=O)(O)O[C@@H]2[C@@H]3F)c(=O)[nH]1` [Example 300, 2-amino-9-[(5R,7R,8S,12aR,14R,15R,15aS,16R)-16-fluoro-2,10,15-trihydroxy-14-(6-hydroxy-9H-purin-9-yl)-2,10-dioxidooctahydro-12H-5,8-methanofuro[3,2-l] [1,3,6,9,11,2,10]pentaoxadiphosphacyclo-tetradecin-7-yl]-1,9-dihydro-6H-purin-6-one], the “% Effect at 30 μM relative to 2′3′-cGAMP” value in assay [1] (setting [2]) amounted to 86%. Further, the EC50 on full-length HAQ STING stood at 5.1 nM.
Turning to `Nc1nc2c(ncn2[C@@H]2O[C@@H]3COP(=O)(O)O[C@H]4[C@@H](O)[C@H](n5cnc6c(N)nc(F)nc65)O[C@@H]4COP(=O)(O)O[C@@H]2[C@@H]3O)c(=O)[nH]1` [Example 34, 2-amino-9-[(5R,7R,8R,12aR,14R,15R,15aS,16R)-14-(6-amino-2-fluoro-9H-purin-9-yl)-2,10,15,16-tetrahydroxy-2,10-dioxidooctahydro-12H-5,8-methanofuro[3,2-l][1,3,6,9,11,2,10]pentaoxadiphosphacyclotetradecin-7-yl]-1,9-dihydro-6H-purin-6-one], in assay [1] (setting [2]), the “% Effect at 30 μM relative to 2′3′-cGAMP” value is listed as 125%. Further, the EC50 at full-length HAQ STING was determined as 24.6 nM.
On the same counts, the results for `Nc1nc2c(ncn2[C@@H]2O[C@@H]3COP(=O)(O)O[C@H]4[C@H](F)[C@H](n5cnc6c(=O)[nH]cnc65)O[C@@H]4COP(=O)(O)O[C@@H]2[C@@H]3O)c(=O)[nH]1` [Example 295, 2-amino-9-[(5R,7R,8R,12aR,14R,15S,15aR,16R)-15-fluoro-2,10,16-trihydroxy-2,10-dioxido-14-(6-oxo-1,6-dihydro-9H-purin-9-yl)octahydro-12H-5,8-methanofuro[3,2-l] [1,3,6,9,11,2,10]pentaoxadiphosphacyclo-tetradecin-7-yl]-1,9-dihydro-6H-purin-6-one] are 70% and 29.6 nM.
As for `Nc1nc2c(ncn2[C@@H]2O[C@@H]3COP(=O)(S)O[C@H]4[C@@H](O)[C@H](n5ccc6c(N)ncnc65)O[C@@H]4COP(=O)(S)O[C@@H]2C3)c(=O)[nH]1` (single isomer, unassigned) [Example 78], the EC50 on full-length HAQ STING came out at 14.6 nM.
As for `Nc1nc2c(ncn2[C@@H]2O[C@@H]3COP(=O)(S)O[C@H]4[C@@H](O)[C@H](n5ccc6c(N)ncnc65)O[C@@H]4COP(=O)(S)O[C@@H]2C3)c(=O)[nH]1` (single isomer, unassigned) [Example 79], at full-length HAQ STING, the EC50 was determined as 103 nM.
On to `Nc1nc2c(ncn2[C@@H]2O[C@@H]3COP(=O)(S)OC4[C@@H](COP(=O)(S)O[C@H]2C3)O[C@@H](n2cnc3c(N)ncnc32)[C@H]4F)c(=O)[nH]1` (single isomer, unassigned) [Example 132], for which, at full-length HAQ STING, the EC50 came to 25.9 nM.
Take `Nc1nc2c(ncn2[C@@H]2O[C@@H]3COP(=O)(O)OC4C[C@H](n5cnc6c(N)ncnc65)O[C@@H]4COP(=O)(O)OC2C3F)c(=O)[nH]1` (stereo in doubt) [Example 22, 2-amino-9-[(5R,7R,8S,12aR,14R,15aS,16R)-14-(6-amino-9H-purin-9-yl)-16-fluoro-2,10-dihydroxy-2,10-dioxidooctahydro-12H-5,8-methanofuro[3,2-l][1,3,6,9,11,2,10]pentaoxadiphosphacyclotetradecin-7-yl]-1,9-dihydro-6H-purin-6-one]: in assay [1], the “% Effect at 30 μM relative to 2′3′-cGAMP” value stood at 109%.
In the case of `Nc1nc2c(nnn2[C@@H]2O[C@@H]3COP(=O)(O)O[C@H]4[C@@H](O)[C@H](n5cnc6c(N)ncnc65)O[C@@H]4COP(=O)(O)O[C@@H]2[C@@H]3O)c(=O)[nH]1` [Example 69, 5-amino-3-[(5R,7R,8R,12aR,14R,15R,15aS,16R)-14-(6-amino-9H-purin-9-yl)-2,10,15,16-tetrahydroxy-2,10-dioxidooctahydro-12H-5,8-methanofuro[3,2-l][1,3,6,9,11,2,10]pentaoxadiphosphacyclotetradecin-7-yl]-3,6-dihydro-7H-[1,2,3]triazolo[4,5-d]pyrimidin-7-one], the EC50 at full-length HAQ STING was less than 1 nM.
For `Nc1nc2c(ncn2[C@@H]2O[C@@H]3COP(=O)(O)O[C@H]4[C@H](F)[C@H](n5cnc6c(N)ncnc65)O[C@@H]4COP(O)(=S)O[C@@H]2[C@@H]3F)c(=O)[nH]1` (single isomer, unassigned) [Example 274], the “% Effect at 30 μM relative to 2′3′-cGAMP” value in assay [1] (setting [2]) stood at 124%.
As for `Nc1nc2c(ncn2[C@@H]2O[C@@H]3COP(=O)(O)O[C@H]4[C@H](F)[C@H](n5cnc6c(N)ncnc65)O[C@@H]4COP(O)(=S)O[C@@H]2[C@@H]3F)c(=O)[nH]1` (single isomer, unassigned) [Example 273], the “% Effect at 30 μM relative to 2′3′-cGAMP” value in assay [1] (setting [2]) is 85%.
Same read-out and setting: the figure for `Nc1nc2c(nnn2[C@@H]2O[C@@H]3COP(=O)(S)O[C@H]4[C@H](F)[C@H](n5nnc6c(=O)[nH]cnc65)O[C@@H]4COP(=O)(S)O[C@@H]2[C@@H]3F)c(=O)[nH]1` (single isomer, unassigned) [Example 344] is 337%.
With `Nc1nc2c(ncn2[C@@H]2O[C@@H]3COP(=O)(O)OC4C(O)[C@H](n5cnc6c(N)ncnc65)O[C@@H]4COP(=O)(O)OC2C3F)c(=O)[nH]1` (stereo in doubt) [Example 5, (5R,7R,8S,12aR,14R,15R,15aS,16R)-7-(2-amino-6-oxo-1,6-dihydro-9H-purin-9-yl)-14-(6-amino-9H-purin-9-yl)-16-fluoro-15-hydroxyoctahydro-12H-5,8-methanofuro[3,2-l] [1,3,6,9,11,2,10]pentaoxadiphosphacyclotetradecine-2,10-diolate 2,10-dioxide], in assay [1], the “% Effect at 30 μM relative to 2′3′-cGAMP” value is recorded as 152%.
`Nc1nc2c(ncn2[C@@H]2O[C@@H]3CO[P@@](O)(=S)O[C@H]4[C@H](F)[C@H](n5cnc6c(N)ncnc65)O[C@@H]4CO[P@@](O)(=S)O[C@@H]2C3)c(=O)[nH]1` [Example 130, 2-amino-9-[(2R,5S,7R,8R,10R,12aR,14R,15S,15aR)-14-(6-amino-9H-purin-9-yl)-15-fluoro-2,10-dihydroxy-2,10-disulfidooctahydro-12H-5,8-methanofuro[3,2-l][1,3,6,9,11,2,10]pentaoxadiphosphacyclotetradecin-7-yl]-1,9-dihydro-6H-purin-6-one]: the EC50 on full-length HAQ STING is less than 1 nM.
Regarding `Nc1nc2c(ncn2[C@@H]2O[C@@H]3COP(=O)(O)O[C@H]4[C@@H](O)[C@H](n5cnc6c(N)ncnc65)O[C@@H]4COP(=O)(O)O[C@@H]2[C@H]3F)c(=O)[nH]1` [Example 52, 2-amino-9-[(5R,7R,8S,12aR,14R,15R,15aS,16S)-14-(6-amino-9H-purin-9-yl)-16-fluoro-2,10,15-trihydroxy-2,10-dioxidooctahydro-12H-5,8-methanofuro[3,2-l][1,3,6,9,11,2,10]pentaoxadiphosphacyclotetradecin-7-yl]-1,9-dihydro-6H-purin-6-one], the “% Effect at 30 μM relative to 2′3′-cGAMP” value in assay [1] came out at 143%.
